# What was measured:
# human cathepsin K = human cathepsin K (UniProt P43236); test: Cathepsin K Assay (hrbCat K); type: biochemical; conditions: human cathepsin K 0.4 nM, Z-Leu-Arg-AMC 8 μM, pH 5.5, 15 min preincubation; read-out: hrbCat K IP
# Method: Cathepsin K Assay (hrbCat K)
# (§1) Serial dilutions (⅓) from 500 μM down to 0.025 μM of test compounds were prepared in dimethyl sulfoxide (DMSO). Then 0.5 μL of DMSO from each dilution were added to 18.75 μL of assay buffer (MES, 50 mM (pH 5.5); EDTA, 2.5 mM; DTT, 2.5 mM and 10% DMSO) containing human cathepsin K (0.4 nM) in assay buffer solution. The assay solutions were mixed for 5-10 seconds on a shaker plate and incubated for 15 minutes at room temperature. Z-Leu-Arg-AMC (8 μM) in 6.25 μL of assay buffer was added to the assay solutions. Hydrolysis of the coumarin leaving group (AMC) was followed by spectrofluorometry (Exλ=360 nm; Emλ=460 nm) for 30 minutes. Percent of inhibition were calculated by fitting experimental values to standard mathematical model for dose response curve.
# human cathepsin F = molecular target: T1, human cathepsin F (Homo sapiens, UniProt Q9UBX1); test: Cathepsin F assay (hCat F); type: biochemical; conditions: human cathepsin F 10 nM, Z-Phe-Arg-AMC 8 μM, pH 5.5, 15 min preincubation; read-out: hCat F IP
# T1 sequence (Q9UBX1 271-484): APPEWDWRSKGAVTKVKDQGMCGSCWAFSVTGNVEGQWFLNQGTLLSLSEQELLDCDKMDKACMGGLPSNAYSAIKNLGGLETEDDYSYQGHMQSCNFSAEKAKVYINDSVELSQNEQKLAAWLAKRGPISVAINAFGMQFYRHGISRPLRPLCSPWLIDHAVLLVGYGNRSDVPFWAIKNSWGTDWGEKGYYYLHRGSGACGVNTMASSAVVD
# Method: Cathepsin F assay (hCat F)
# as §1, with “F (10” for “K (0.4”, “Z-Phe-Arg-AMC” for “Z-Leu-Arg-AMC”, “(Exp, =360” for “(Exλ=360”, “EmX=460” for “Emλ=460”, “20” for “30”
SMILES,IC50 (human cathepsin K),IC50 (human cathepsin F)
"CC1CC1(C#N)NC(=O)[C@@H]1CCCC[C@H]1c1oc(-c2ccc(F)cc2)nc1-c1ccc(N2CCS(=O)(=O)CC2)cc1 (single isomer, unassigned) [Example 133, (1R,2R)-N-((2R or 2S)-1-cyano-2-methylcyclopropyl)-2-(4-(4-(1,1-dioxidothiomorpholino)phenyl)-2-(4-fluorophenyl)oxazol-5-yl)cyclohexanecarboxamide]",0.00253 µM,3.14 µM
"N#CC1(NC(=O)[C@@H]2CC(C(F)F)CC[C@H]2c2oc(-c3ccc(F)cc3)nc2-c2ccc(N3CCS(=O)(=O)CC3)cc2)CC1 (mixture of isomers) [Example 138, (1R,2R,5R and 1R,2R,5S)-N-(1-cyanocyclopropyl)-5-(difluoromethyl)-2-(4-(4-(1,1-dioxidothiomorpholino)phenyl)-2-(4-fluorophenyl)oxazol-5-yl)cyclohexanecarboxamide]",0.0124 µM,0.151 µM
"CC(C)(C#N)NC(=O)[C@@H]1CCCC[C@H]1c1oc(-c2ccc(F)cc2F)nc1-c1ccc(N2CCS(=O)(=O)CC2)cc1 [Example 43, (1R,2R)-N-(2-cyanopropan-2-yl)-2-(2-(2,4-difluorophenyl)-4-(4-(1,1-dioxidothiomorpholino)phenyl)oxazol-5-yl)cyclohexanecarboxamide]",0.0157 µM,1.65 µM
"C[C@@H]1CC(F)(F)CC[C@@H]1c1nc(-c2ccc(N3CCS(=O)(=O)CC3)cc2)c([C@@H]2CCCC[C@H]2C(=O)NC2(C#N)CC2)o1 [Example 107, (1R,2R)-N-(1-cyanocyclopropyl)-2-(2-((1S,2R)-4,4-difluoro-2-methylcyclohexyl)-4-(4-(1,1-dioxidothiomorpholino)phenyl)oxazol-5-yl)cyclohexanecarboxamide]",0.00231 µM,1.29 µM
"N#CC1(NC(=O)[C@@H]2CCCC[C@H]2c2oc(-c3ccc(F)cc3F)nc2-c2ccc(C(=O)N3CCOCC3)cc2)CC1 [Example 120, (1R,2R)-N-(1-cyanocyclopropyl)-2-(2-(2,4-difluorophenyl)-4-(4-(morpholine-4-carbonyl)phenyl)oxazol-5-yl)cyclohexanecarboxamide]",0.0145 µM,
"CC(C#N)NC(=O)[C@@H]1CCCC[C@H]1c1oc(-c2ccc(F)cc2F)nc1-c1ccc(N2CCS(=O)(=O)CC2)cc1 (single isomer, unassigned) [Example 45, (1R,2R)-N-((R or S)-1-cyanoethyl)-2-(2-(2,4-difluorophenyl)-4-(4-(1,1-dioxidothiomorpholino)phenyl)oxazol-5-yl)cyclohexanecarboxamide]",0.0327 µM,
"N#CC1(NC(=O)[C@@H]2CCCC[C@H]2c2oc(-c3ccc(S(=O)(=O)C(F)(F)F)cc3)nc2-c2ccc(N3CCS(=O)(=O)CC3)cc2)CC1 [Example 104, (1R,2R)-N-(1-cyanocyclopropyl)-2-(4-(4-(1,1-dioxidothiomorpholino)phenyl)-2-(4-((trifluoromethyl)sulfonyl)phenyl)oxazol-5-yl)cyclohexanecarboxamide]",0.0024 µM,
"N#CC1(NC(=O)[C@@H]2CCCC[C@H]2c2oc(-c3ccc(F)cc3)nc2-c2ccc(N3CCOCC3)cc2)CC1 [Example 17, (1R,2R)-N-(1-cyanocyclopropyl)-2-(2-(4-fluorophenyl)-4-(4-morpholinophenyl)oxazol-5-yl)cyclohexanecarboxamide]",0.00936 µM,
"N#CC1(NC(=O)[C@@H]2CCCC[C@H]2c2oc(N3CCOCC3)nc2-c2ccc(N3CCS(=O)(=O)CC3)cc2)CC1 [Example 47, (1R,2R)-N-(1-cyanocyclopropyl)-2-(4-(4-(1,1-dioxidothiomorpholino)phenyl)-2-morpholinooxazol-5-yl)cyclohexanecarboxamide]",0.00311 µM,

# The next molecules have a lower IC50 (human cathepsin K) than those just listed; values first:
IC50 (human cathepsin K),IC50 (human cathepsin F),SMILES
0.00037 µM,0.681 µM,"N#CC1(NC(=O)[C@@H]2CCCC[C@H]2c2oc(-c3ccc(F)cc3F)nc2-c2ccc(N3CCS(=O)(=O)CC3)cc2)CC1 [Example 27, (1R,2R)-N-(1-cyanocyclopropyl)-2-(2-(2,4-difluorophenyl)-4-(4-(1,1-dioxidothiomorpholino)phenyl)oxazol-5-yl)cyclohexanecarboxamide]"
0.00046 µM,0.628 µM,"N#CC1(NC(=O)[C@@H]2CCCC[C@H]2c2oc(C(F)(F)F)nc2-c2ccc(N3CCS(=O)(=O)CC3)cc2)CC1 [Example 13, (1R,2R)-N-(1-cyanocyclopropyl)-2-(4-(4-(1,1-dioxidothiomorpholino)phenyl)-2-(trifluoromethyl)oxazol-5-yl)cyclohexanecarboxamide]"
0.00029 µM,0.327 µM,"Cc1nc(-c2ccc(N3CCS(=O)(=O)CC3)cc2)c([C@@H]2CCC(F)(F)C[C@H]2C(=O)NCC#N)o1 [Example 12, (1R,2R)-N-(cyanomethyl)-2-(4-(4-(1,1-dioxidothiomorpholino)phenyl)-2-methyloxazol-5-yl)-5,5-difluorocyclohexane-carboxamide]"
0.00183 µM,1.06 µM,"N#CC1(NC(=O)[C@@H]2CCCC[C@H]2c2oc(C3CCC(C(F)(F)F)CC3)nc2-c2ccc(N3CCS(=O)(=O)CC3)cc2)CC1 (mixture of isomers) [Example 111, (1R,2R)-N-(1-cyanocyclopropyl)-2-(4-(4-(1,1-dioxidothiomorpholino)phenyl)-2-((1R,4R and 1S,4S)-4-(trifluoromethyl)cyclohexyl)oxazol-5-yl)cyclohexanecarboxamide]"
0.00068 µM,0.259 µM,"N#CC1(NC(=O)[C@@H]2CC(Cl)(Cl)CC[C@H]2c2oc(C(F)(F)C(F)(F)F)nc2-c2ccc(C(=O)N3CCOCC3)cc2)CC1 [Example 154, (1R,2R)-5,5-dichloro-N-(1-cyanocyclopropyl)-2-(4-(4-(morpholine-4-carbonyl)phenyl)-2-(perfluoroethyl)oxazol-5-yl)cyclohexanecarboxamide]"
0.00135 µM,0.819 µM,"CC(C)(C)c1ccc(-c2nc(-c3ccc(N4CCS(=O)(=O)CC4)cc3)c([C@@H]3CCCC[C@H]3C(=O)NC3(C#N)CC3)o2)cc1 [Example 89, (1R,2R)-2-(2-(4-(tert-butyl)phenyl)-4-(4-(1,1-dioxidothiomorpholino)phenyl)oxazol-5-yl)-N-(1-cyanocyclopropyl) cyclohexanecarboxamide]"
0.00213 µM,0.472 µM,"CC(C)C(C#N)NC(=O)[C@@H]1CCCC[C@H]1c1oc(-c2ccc(F)cc2)nc1-c1ccc(N2CCS(=O)(=O)CC2)cc1 (single isomer, unassigned) [Example 123, (1R,2R)-N-((S or R)-1-cyano-2-methylpropyl)-2-(4-(4-(1,1-dioxidothiomorpholino)phenyl)-2-(4-fluorophenyl)oxazol-5-yl)cyclohexanecarboxamide]"
0.00087 µM,0.363 µM,"N#CC1(NC(=O)[C@@H]2CCCC[C@H]2c2oc(-c3ccccc3OC(F)F)nc2-c2ccc(N3CCS(=O)(=O)CC3)cc2)CC1 [Example 96, (1R,2R)-N-(1-cyanocyclopropyl)-2-(2-(2-(difluoromethoxy)phenyl)-4-(4-(1,1-dioxidothiomorpholino)phenyl)oxazol-5-yl)cyclohexanecarboxamide]"
0.00189 µM,2.23 µM,"CC1(c2nc(-c3ccc(N4CCS(=O)(=O)CC4)cc3)c([C@@H]3CCCC[C@H]3C(=O)NC3(C#N)CC3)o2)CCOCC1 [Example 99, (1R,2R)-N-(1-cyanocyclopropyl)-2-(4-(4-(1,1-dioxidothiomorpholino)phenyl)-2-(4-methyltetrahydro-2H-pyran-4-yl)oxazol-5-yl)cyclohexanecarboxamide]"
0.00066 µM,0.23 µM,"CC(C#N)NC(=O)[C@@H]1CCCC[C@H]1c1oc(-c2ccc(F)cc2F)nc1-c1ccc(N2CCS(=O)(=O)CC2)cc1 (single isomer, unassigned) [Example 46, (1R,2R)-N-((S or R)-1-cyanoethyl)-2-(2-(2,4-difluorophenyl)-4-(4-(1,1-dioxidothiomorpholino)phenyl)oxazol-5-yl)cyclohexanecarboxamide]"
0.00184 µM,0.734 µM,COc1ccc(-c2nc(-c3ccc(N4CCS(=O)(=O)CC4)cc3)c([C@@H]3CCCC[C@H]3C(=O)NC3(C#N)CC3)o2)cc1 [Example 70]
0.0011 µM,,"N#CC1(NC(=O)[C@@H]2CCCC[C@H]2c2oc(-c3ccc(Cl)c(F)c3)nc2-c2ccc(N3CCS(=O)(=O)CC3)cc2)CC1 [Example 76, (1R,2R)-2-(2-(4-chloro-3-fluorophenyl)-4-(4-(1,1-dioxidothiomorpholino)phenyl)oxazol-5-yl)-N-(1-cyanocyclopropyl) cyclohexanecarboxamide]"

# Source: patent US9458181B2, “Cathepsin cysteine protease inhibitors” (Merck Sharp & Dohme Corp., priority 2013, dated 2016)
